Columns and labels:
[1] = molecular target: T1, hA1AR (Homo sapiens, UniProt P30542); conditions: percent inhibition of specific radioligand binding at 10 μM; ref [11]; cited from earlier work
T1 sequence (P30542 1-326): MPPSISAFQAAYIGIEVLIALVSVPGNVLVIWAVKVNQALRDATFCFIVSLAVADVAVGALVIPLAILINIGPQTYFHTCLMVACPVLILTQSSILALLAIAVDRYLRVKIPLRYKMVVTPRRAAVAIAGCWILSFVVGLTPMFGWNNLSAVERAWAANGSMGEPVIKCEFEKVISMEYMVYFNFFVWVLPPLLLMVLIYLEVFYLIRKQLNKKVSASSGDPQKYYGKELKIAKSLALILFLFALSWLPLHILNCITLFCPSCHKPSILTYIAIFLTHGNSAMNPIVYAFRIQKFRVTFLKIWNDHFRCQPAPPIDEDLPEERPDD

[2] = molecular target: T2, hA2AAR (Homo sapiens, UniProt P29274); conditions: compared to the standard CGS21680; cited from earlier work
T2 sequence (P29274 whole entry): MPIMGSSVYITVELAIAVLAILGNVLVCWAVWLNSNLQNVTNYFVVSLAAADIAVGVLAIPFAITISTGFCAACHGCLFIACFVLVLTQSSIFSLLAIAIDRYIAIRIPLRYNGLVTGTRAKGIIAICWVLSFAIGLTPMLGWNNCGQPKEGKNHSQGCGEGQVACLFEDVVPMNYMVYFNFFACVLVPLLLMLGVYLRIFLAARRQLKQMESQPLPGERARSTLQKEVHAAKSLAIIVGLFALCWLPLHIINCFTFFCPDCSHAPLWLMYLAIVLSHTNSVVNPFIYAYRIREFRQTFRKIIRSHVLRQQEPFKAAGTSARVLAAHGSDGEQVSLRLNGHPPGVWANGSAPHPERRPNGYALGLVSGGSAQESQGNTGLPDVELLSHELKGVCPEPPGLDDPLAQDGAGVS

[3] = molecular target: T3, hA2BAR (Homo sapiens, UniProt P29275); conditions: read-out: EC50, cyclic AMP accumulation at hA2BAR; CHO cells; cited from earlier work
T3 sequence (P29275 1-332): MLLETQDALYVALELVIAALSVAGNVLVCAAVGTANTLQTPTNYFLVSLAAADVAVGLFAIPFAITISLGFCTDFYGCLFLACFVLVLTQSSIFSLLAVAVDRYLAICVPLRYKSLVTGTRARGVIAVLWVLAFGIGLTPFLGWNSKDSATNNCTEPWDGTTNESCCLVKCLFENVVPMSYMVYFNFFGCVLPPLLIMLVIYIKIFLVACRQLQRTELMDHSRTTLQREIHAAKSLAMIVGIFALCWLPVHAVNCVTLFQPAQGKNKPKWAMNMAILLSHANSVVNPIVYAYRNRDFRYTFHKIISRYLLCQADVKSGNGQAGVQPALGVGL

[4] = molecular target: T2, hA2AAR; assay: Radioligand binding assay at human A2A receptor; conditions: ratio of Ki values
[5] = molecular target: T2, hA2AAR; conditions: percent inhibition of specific radioligand binding at 10 μM; ref [11]; cited from earlier work

decrease of hA2AAR binding affinity in comparison to 4g [4] | Compound | Affinity (% inhibition) hA1 [1] | agonist efficacy at hA2AAR [2] | EC50 [3] | Affinity (% inhibition) hA2A [5]
 | CCCCC#Cc1nc(N)c2ncn([C@@H]3SCC(O)C3O)c2n1 (stereo in doubt) [Compound 4g, (−)-(2R,3S,4R)-2-(6-Amino-2-(hex-1-ynyl)-9H-purin-9-yl)tetrahydrothiophene-3,4-diol] | 39 ± 10% | full agonist | ~10 µM | 
520 fold | CCCCC#Cc1nc(NCc2cccc(Cl)c2)c2ncn([C@@H]3SCC(O)C3O)c2n1 (stereo in doubt) [Compound 4i, (−)-(2R,3S,4R)-2-(6-(3-Chlorobenzylamino)-2-(hex-1-ynyl)-9H-purin-9-yl)tetrahydrothiophene-3,4-diol] |  |  |  | 
 | CCCCC#Cc1nc2c(N)ncnc2n1[C@@H]1SCC(O)C1O (stereo in doubt) [Compound 4o, (−)-(2R,3S,4R)-2-(6-Amino-8-(hex-1-ynyl)-9H-purine-9-yl)-tetrahydrothiophene-3,4-diol] | 49.3 ± 4.9% |  |  | 46.5 ± 4.3%
 | CCCC/C=C/c1nc2c(N)ncnc2n1[C@@H]1SCC(O)C1O (stereo in doubt) [Compound 4r, (−)-(2R,3S,4R)-2-(6-Amino-8-(hex-1-enyl)-9H-purine-9-yl)-tetrahydrothiophene-3,4-diol] | 3.7 ± 2.9% |  |  | 22.8 ± 6.4%
 | CCCC/C=C/c1nc(N)c2ncn([C@@H]3SC[C@@H](O)[C@H]3O)c2n1 [Compound 4m] | 16.2 ± 8.4% |  |  | 
